Experiments:
[1] = test system: brain metastases; conditions: clinical results, MRI long after administration; cited from earlier work
[2] = test system: tumors; conditions: clinical results, magnetic resonance imaging; cited from earlier work
[3] = test system: brain metastases from solid tumors; conditions: patients with brain metastases from solid tumors receiving WBRT; cited from earlier work
[4] = test system: tumors; conditions: cited from earlier work
[5] = test system: brain metastases; experiment: MRI of brain metastases after MGd (FIG. 1A, 1B); type: in vivo, human
Text: In particular, sections 20, 21, and 22 on the right panel (MGd+standard contrast) show brain metastases not visible in sections 20, 21, and 22 on the left panel (standard Gd contrast).

CC(=O)[O-].CC(=O)[O-].CCc1c(CC)c2cc3nc(cnc4cc(OCCOCCOCCOC)c(OCCOCCOCCOC)cc4ncc4nc(cc1[n-]2)C(CCCO)=C4C)C(C)=C3CCCO.O.[Gd+3] [Gd-Tex, Gadolinium Texaphyrin]
tumor selectivity, depiction of brain metastases at MRI [1]: tumor selective
biolocalization in tumors [2]: selective biolocolization in tumors

CC(=O)[O-].CC(=O)[O-].CCc1c(CC)c2cc3nc(cnc4cc(OCCOCCOCCOC)c(OCCOCCOCCOC)cc4ncc4nc(cc1[n-]2)C(CCCO)=C4C)C(C)=C3CCCO.O.[Gd+3] [MGd, motexafin gadolinium]
neurological progression incl. neurologic and neurocognitive function [3]: provides benefit to patient's neurological progression
accumulation in tumors ([4]; clinical results): selectively accumulated in tumors
well tolerated dose ([4]; clinical results): up to 6.3 mg/kg
radiologic response rate ([4]; combined with WBRT of 30 Gy in 10 fractions): high radiologic response rate
MRI enhancement of brain metastases versus standard Gd contrast ([5]; FIG. 1A, MGd+standard contrast vs standard Gd contrast): enhances brain metastases not visible with standard Gd contrast
localization in brain metastases on MRI ([5]; FIG. 1B, brain metastases from NSCLC, post MGd without contrast): localization in brain metastases from NSCLC
